According to US20240239794A1, “PKC-Theta Modulators” (Exscientia AI Limited, priority 2021, published 2024):
Counter-ions that a name gives are not always drawn. Like-named read-outs stand apart in the source and are kept apart here.

Tests used:
[1] = tested on: IL-2 secretion by human effector memory T cells (TEM); experiment: Effector memory T cells IL-2 release assay; type: cell-based; details: T-cell, 24 h
How it was run: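 Human CD4+ effector memory T cells (negatively sorted from donor PBMC), 5,000 per well, stimulated with CD3/CD28 beads and 10 semi-log compound doses for 24 h at 37° C, 0.1% DMSO. Supernatant IL-2 measured by HTRF; IC50 from 4-parameter logistic fit; viability checked by flow cytometry.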

[2] = target: Recombinant human PKC-delta (His-tagged 345-676) (Homo sapiens (Human), UniProt Q05655); experiment: PKC-delta inhibition assay (HTRF KinEASE kit), PKC-theta/PKC-delta selectivity; type: biochemical; details: ratio; for PKC-theta/PKC-delta selectivity: PKC-theta over PKC-delta, HTRF assays; for PKC-theta/PKC-delta selectivity (binned): binned A to G
How it was run: (§1)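 HTRF KinEASE kinase assay, buffer supplemented with 10 mM MgCl2, 1 mM DTT, 0.1% Tween 20; enzyme at 10 ng/ml preincubated 30 min on ice with compound. PKC-theta: 525 nM STK substrate, 6.5 μM ATP, 30 min at 25° C; PKC-delta: 243 nM substrate, 5.7 μM ATP, 20 min. IC50 from 4-parameter fit of 10-dose series.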

[3] = target: Recombinant human PKC-theta (His-tagged 362-706) (Homo sapiens (Human), UniProt Q04759); experiment: PKC-theta inhibition assay (HTRF KinEASE kit); type: biochemical; details: ATP 6.5 μM; for IC50: binned A to H, read-out: PKC-theta HTRF pIC50 (binned) (converted)
How it was run: as §1

[4] = human CD4+ TEM cells, CD3/CD28 bead stimulation, binned A to G, read-out: PKC-theta IL2 pIC50 (binned) (converted)
[5] = human CD4+ TEM cells, CD3/CD28 bead stimulation, read-out: PKC-theta IL2 pIC50 (converted)
[6] = Homo sapiens, read-out: PKC-theta IL2 pIC50 (binned) (converted)
[7] = Homo sapiens, read-out: PKC-theta IL2 pIC50 (converted)

Sequence of Recombinant human PKC-delta (His-tagged 345-676) (Q05655 345-676): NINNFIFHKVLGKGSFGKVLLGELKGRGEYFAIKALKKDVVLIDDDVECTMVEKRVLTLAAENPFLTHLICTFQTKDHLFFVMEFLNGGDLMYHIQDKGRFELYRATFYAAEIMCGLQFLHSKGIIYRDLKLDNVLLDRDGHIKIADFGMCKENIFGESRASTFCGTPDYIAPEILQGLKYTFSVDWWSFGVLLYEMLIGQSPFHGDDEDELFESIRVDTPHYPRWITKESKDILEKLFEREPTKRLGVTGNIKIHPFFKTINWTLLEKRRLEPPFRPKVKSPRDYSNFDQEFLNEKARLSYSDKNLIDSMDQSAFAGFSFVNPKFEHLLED
Sequence of Recombinant human PKC-theta (His-tagged 362-706) (Q04759 362-706): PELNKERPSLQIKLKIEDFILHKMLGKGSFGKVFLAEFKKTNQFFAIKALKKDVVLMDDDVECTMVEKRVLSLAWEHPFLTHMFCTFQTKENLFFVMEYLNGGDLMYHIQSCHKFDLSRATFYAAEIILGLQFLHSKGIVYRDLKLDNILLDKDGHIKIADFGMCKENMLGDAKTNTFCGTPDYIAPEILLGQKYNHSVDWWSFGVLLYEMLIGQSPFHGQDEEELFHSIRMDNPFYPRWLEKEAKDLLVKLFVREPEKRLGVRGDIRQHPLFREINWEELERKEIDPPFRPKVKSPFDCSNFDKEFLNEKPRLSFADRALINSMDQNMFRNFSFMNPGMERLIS

Row | IC50 [1, 4] [nM] | IC50 [1, 5] [nM] | PKC-theta/PKC-delta selectivity [2] | PKC-theta/PKC-delta selectivity (binned) [2] | PKC-theta HTRF pIC50 [3] | IC50 [3] [nM] | SMILES | IC50 [1, 6] [nM] | IC50 [1, 7] [nM]
1 | 31.6 to 100 | 39.8 | 15 | D (D means a ratio of between 10 and 20) | 8.7 | 1 to 3.16 | CC1(C)C(=O)Nc2nccc(-c3nn(C4CCNCC4)c4ccccc34)c21 [Example 9] | – | –
2 | 316 to 1000 | 631 | 12 | D (D means a ratio of between 10 and 20) | 7.4 | 31.6 to 100 | CC1(C)C(=O)Nc2nccc(-c3cn(C4CCNC4)c4ccccc34)c21 (stereo not drawn) [Example 10] | – | –
3 | 100 to 316 | 200 | 11 | D (D means a ratio of between 10 and 20) | 8.1 | 3.16 to 10 | CC1(O)C(=O)Nc2nccc(-c3cn(C4CCNCC4)c4ccccc34)c21 (stereo not drawn) [Example 12] | – | –
4 | 316 to 1000 | 316 | 11 | D (D means a ratio of between 10 and 20) | 7.9 | 10 to 31.6 | CC1(O)C(=O)Nc2nccc(-c3cn([C@H]4CCNC4)c4ccccc34)c21 (stereo partly drawn) [Example 18] | – | –
5 | 31.6 to 100 | 50.1 | 9 | E (E means a ratio of between 5 and 10) | 8.4 | 3.16 to 10 | CC1(C)C(=O)Nc2nccc(-c3nn([C@@H]4CCCNC4)c4ccccc34)c21 [Example 19] | – | –
6 | 100 to 316 | 200 | 13 | D (D means a ratio of between 10 and 20) | 7.8 | 10 to 31.6 | CC1(C)C(=O)Nc2nccc(-c3nn([C@H]4CCCNC4)c4ccccc34)c21 [Example 20] | – | –
7 | > 1000 | 1000 | 9 | E (E means a ratio of between 5 and 10) | 7.3 | 31.6 to 100 | CC1(C)C(=O)Nc2nccc(-c3cn(C4(CC#N)CCC4)c4ccccc34)c21 [Example 21, 2-[1-[3-(3,3-dimethyl-2-oxo-1H-pyrrolo[2,3-b]pyridin-4-yl)indol-1-yl]cyclobutyl]acetonitrile] | – | –
8 | 316 to 1000 | 316 | 15 | D (D means a ratio of between 10 and 20) | 8.0 | 3.16 to 10 | CC1(C)C(=O)Nc2nccc(-c3nn(C4(CC#N)CCC4)c4ccccc34)c21 [Example 22] | – | –
9 | 10 to 31.6 | 31.6 | 11 | D (D means a ratio of between 10 and 20) | 9.3 | ≤ 1 | CC1(C)C(=O)Nc2nccc(-c3nn(C4(CO)CCNC4)c4ccccc34)c21 (stereo not drawn) [Example 23] | – | –
10 | 31.6 to 100 | 63.1 | 9 | E (E means a ratio of between 5 and 10) | 8.4 | 3.16 to 10 | CC1(O)C(=O)Nc2nccc(-c3cn(C4(CC#N)CCC4)c4ccccc34)c21 (stereo not drawn) [Example 24] | – | –
11 | 10 to 31.6 | 20 | 6 | E (E means a ratio of between 5 and 10) | 9.3 | ≤ 1 | CC1(O)C(=O)Nc2nccc(-c3nn(C4(CC#N)CCC4)c4ccccc34)c21 (stereo not drawn) [Example 25, 2-[1-[3-(3-hydroxy-3-methyl-2-oxo-1H-pyrrolo[2,3-b]pyridin-4-yl)indazol-1-yl]cyclobutyl]acetonitrile] | – | –
12 | 31.6 to 100 | 79.4 | 11 | D (D means a ratio of between 10 and 20) | 8.5 | 3.16 to 10 | CC1(O)C(=O)Nc2nccc(-c3nn(C4CCNCC4)c4ccccc34)c21 (stereo not drawn) [Example 26] | – | –
13 | 31.6 to 100 | 50.1 | 14 | D (D means a ratio of between 10 and 20) | 8.9 | 1 to 3.16 | CC1(C)C(=O)Nc2nccc(-c3nn(CC4CCNCC4)c4ccccc34)c21 [Example 30] | – | –
14 | 31.6 to 100 | 39.8 | 12 | D (D means a ratio of between 10 and 20) | 8.8 | 1 to 3.16 | CC1(O)C(=O)Nc2nccc(-c3nn([C@@H]4CCNC[C@@H]4F)c4ccccc34)c21 (stereo partly drawn) [Example 34] | – | –
15 | 31.6 to 100 | 100 | 11 | D (D means a ratio of between 10 and 20) | 8.5 | 3.16 to 10 | CC1(O)C(=O)Nc2nccc(-c3nn([C@H]4CCNC[C@@H]4F)c4ccccc34)c21 (stereo partly drawn) [Example 35] | – | –

More lines, now with the values behind:

Row | SMILES | IC50 [1, 4] [nM] | IC50 [1, 5] [nM] | PKC-theta/PKC-delta selectivity [2] | PKC-theta/PKC-delta selectivity (binned) [2] | PKC-theta HTRF pIC50 [3] | IC50 [3] [nM] | IC50 [1, 6] [nM] | IC50 [1, 7] [nM]
16 | COCc1cc(-c2ccnc3[nH]c(=O)[nH]c23)cn1C1CCNCC1 [Example 4] | > 1000 | 3980 | 2 | F (F means a ratio of between 1 and 5) | 6.0 | > 1000 | – | –
17 | CC1C(=O)Nc2nccc(-c3ccn(C4CCNCC4)c3)c21 (stereo not drawn) [Example 5] | 100 to 316 | 126 | 1 | F (F means a ratio of between 1 and 5) | 7.1 | 31.6 to 100 | – | –
18 | CC1(C)C(=O)Nc2nccc(-c3ccn(C4CCNCC4)c3)c21 [Example 6] | 316 to 1000 | 631 | 3 | F (F means a ratio of between 1 and 5) | 7.4 | 31.6 to 100 | – | –
19 | CC1(C)C(=O)Nc2nccc(-c3cn(C4CCNCC4)c4ccccc34)c21 [Example 7, 3,3-dimethyl-4-[1-(4-piperidyl)indol-3-yl]-1H-pyrrolo[2,3-b]pyridin-2-one Dihydrochloride] | – | – | 6 | E (E means a ratio of between 5 and 10) | 7.4 | 31.6 to 100 | 316 to 1000 | 501
20 | CC1(C)C(=O)Nc2nccc(-c3ccn(C4CCNCC4)n3)c21 [Example 8, 3,3-dimethyl-4-[1-(4-piperidyl)pyrazol-3-yl]-1H-pyrrolo[2,3-b]pyridin-2-one Dihydrochloride] | – | – | 5 | E (E means a ratio of between 5 and 10) | 8.1 | 3.16 to 10 | 100 to 316 | 126
21 | CC1(O)C(=O)Nc2nccc(-c3ccn(C4CCNCC4)c3)c21 (stereo not drawn) [Example 11] | > 1000 | 1580 | 4 | F (F means a ratio of between 1 and 5) | 7.2 | 31.6 to 100 | – | –
22 | CC1(O)C(=O)Nc2nccc(-c3ccn(C4CCNCC4)n3)c21 (stereo not drawn) [Example 13] | 316 to 1000 | 631 | 4 | F (F means a ratio of between 1 and 5) | 7.4 | 31.6 to 100 | – | –
23 | CC1(C)C(=O)Nc2nccc(-c3ccn([C@H]4CC[C@H](N)CC4)n3)c21 [Example 14] | 31.6 to 100 | 50.1 | 3 | F (F means a ratio of between 1 and 5) | 8.5 | 3.16 to 10 | – | –
24 | CC1(C)C(=O)Nc2nccc(-c3nn([C@@H]4CCNC4)c4ccccc34)c21 [Example 15] | 31.6 to 100 | 39.8 | 14 | D (D means a ratio of between 10 and 20) | 8.6 | 1 to 3.16 | – | –
25 | CC1(C)C(=O)Nc2nccc(-c3nn([C@H]4CCNC4)c4ccccc34)c21 [Example 16, 3,3-dimethyl-4-[1-[(3S)-pyrrolidin-3-yl]indazol-3-yl]-1H-pyrrolo[2,3-b]pyridin-2-one Dihydrochloride] | – | – | 18 | D (D means a ratio of between 10 and 20) | 8.3 | 3.16 to 10 | 31.6 to 100 | 63.1
26 | CC1(C)C(=O)Nc2nccc(-c3nn(C4CCNCC4)c4c(F)cccc34)c21 [Example 32] | 100 to 316 | 100 | 13 | D (D means a ratio of between 10 and 20) | 8.1 | 3.16 to 10 | – | –
